# Measured values taken from patent US20120238599A1, “HETEROCYCLIC COMPOUNDS AS MEK INHIBITORS” (CHEMIZON, A DIVISION OF OPTOMAGIC CO., LTD., priority 2011, published 2012).
# Key:
# MEK = test: Cell-based mechanism assay in A375 cell line, MEK inhibition detected by reduced ERK phosphorylation (AlphaScreen SureFire); conditions: A375 cell line (melanoma), phospho-ERK levels, compounds incubated 1 hour at 37° C.
# Method: To investigate whether a compound is able to inhibit the activity of MEK in cells, a mechanism-based assay using A375 cell line (melanoma) was developed. In this assay (AlphaScreen, PerkinElmer), inhibition of MEK was detected by reduced ERK phosphorylation. A375 cells were cultured in a tissue culture flask to 80% confluence in DMEM plus 10% fetal bovine serum. Cells were collected and plated onto 96 well culture plates at 3×10^4 cells/well. Plates were incubated overnight at 37° C. with 5% CO2 to allow cells to adhere. Compounds were added to the plates and incubated at 37° C. for 1 hour. After removing the medium, 100 μl of cell lysis buffer were added to each well and 4 μl of cell lysate were transferred into a 384 well white Proxiplate (PerkinElmer). The phospho-ERK levels were determined by following the standard protocol supplied with the PerkinElmer SureFire Phospho-ERK 1/2 Assay Kit®. Plates were read out by EnVision (PerkinElmer). The data were analyzed using GraphPad Prism.
# Mek1 = target: T1, Mek1 (Homo sapiens, UniProt Q02750); test: Mek1 kinase assay (LANCE), enzymatic activity; format: biochemical; conditions: Mek1 0.25 nM, 50 μM ATP, 2 nM inactive Erk1, 90 min at 23° C.
# T1 construct: purchased Millipore
# T1 sequence (Q02750 whole entry, species assumed): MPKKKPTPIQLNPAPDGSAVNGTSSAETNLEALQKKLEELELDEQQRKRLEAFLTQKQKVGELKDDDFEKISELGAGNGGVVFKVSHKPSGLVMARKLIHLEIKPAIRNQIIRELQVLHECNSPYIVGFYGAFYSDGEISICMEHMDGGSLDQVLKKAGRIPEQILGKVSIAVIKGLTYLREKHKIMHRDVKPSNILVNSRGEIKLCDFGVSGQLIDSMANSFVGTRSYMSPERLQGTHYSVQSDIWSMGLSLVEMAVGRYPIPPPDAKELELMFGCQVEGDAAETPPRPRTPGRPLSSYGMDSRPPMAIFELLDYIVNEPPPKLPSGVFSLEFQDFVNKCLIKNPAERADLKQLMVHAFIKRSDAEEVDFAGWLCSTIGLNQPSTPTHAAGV
# Method: A Mek1 kinase assay (LANCE, PerkinElmer) was developed for supporting compound profiling and lead optimization. […] Then the phosphorylated Erk1 was able to phosphorylate ULight™-MBP peptide (PerkinElmer). The phosphorylated peptide was detected by Europium-anti-phospho-MBP (PerkinElmer). […] After quenching the reaction, 2 nM Europium-anti-phospho-MBP was added to the reaction mixture and incubated for 60 min, followed by a detection using EnVision. The IC50 values were derived through a curve fitting using GraFit.
Compound,IC50 (MEK),IC50 (Mek1)
COc1c(C(=O)NOCCO)c(Nc2ccc(I)cc2F)n(C)c(=O)c1C,< 100 nM,< 100 nM
Cn1c(Nc2ccc(I)cc2Cl)c(C(=O)NOCCO)c2occc2c1=O,< 100 nM,< 100 nM
Cn1c(Nc2ccc(I)cc2F)c(C(=O)NOCCO)c2sccc2c1=O,< 100 nM,< 1000 nM
Cc1nc2c(=O)n(C)c(Nc3ccc(I)cc3F)c(C(=O)NOCCO)c2o1,< 100 nM,< 1000 nM
Cc1noc2c(C(=O)NOCCO)c(Nc3ccc(I)cc3F)n(C)c(=O)c12,< 100 nM,< 5000 nM
Cc1coc2c(C(=O)NOCCO)c(Nc3ccc(I)cc3F)n(C)c(=O)c12,< 100 nM,< 1000 nM
Cn1c(Nc2ccc(I)cc2F)c(C(=O)NOCCO)c2scnc2c1=O,< 5000 nM,< 5000 nM

# Further lines, results first:
IC50 (MEK),IC50 (Mek1),Compound
< 100 nM,< 100 nM,Cn1c(Nc2ccc(I)cc2F)c(C(=O)NOCCO)c2occc2c1=O
< 100 nM,< 100 nM,Cn1c(Nc2ccc(I)cc2F)c(C(=O)NOC[C@H](O)CO)c2occc2c1=O
< 100 nM,< 5000 nM,Cn1c(Nc2ccc(I)cc2F)c(C(=O)NCCCO)c2occc2c1=O
